Laboratory results as given in US4963573A, “[[[(3-pyridinyl)methylen]amino]oxy]alkanoic acids and esters” (Janssen Pharmaceutica N.V., priority 1989, dated 1990).
Like-named read-outs stand apart in the source and are kept apart here.

Experiments:
[1] = system: thromboxane A2 biosynthesis; assay: Platelet malondialdehyde (MDA) production in vitro, human platelets in plasma, thrombin stimulated; type: cell-based; conditions: human platelet-rich plasma, thrombin 20 N.I.H. U/ml, 10 min pre-incubation at 37° C., 30 min reaction, 50% inhibition vs solvent
Experimental: (§1) MDA production by platelets in plasma, as an indicator of the thromboxane A2 biosynthesis, was evaluated spectrofluometrically. […] After 30 min at 37° C., the reaction was terminated by the addition of 1 ml of 10% (w/v) trichloroacetic acid. After isolation of the supernatant by centrifugation at 320 g for 20 min, the thiobarbituric acid reaction for MDA was performed using acid-hydrolyzed 1,1,3,3-tetramethoxypropane as a standard. The fluorescence of the samples at 553 nm after excitation at 510 nm was measured. The results were calculated as nM MDA/10^8 platelets/30 min and were expressed as a percentage inhibition produced by the compounds relative to the formation of MDA after thrombin stimulation in the solvent. For in vitro experiments, human platelets in plasma were used. Percentage inhibition was calculated versus the solvent value.

[2] = system: thromboxane A2 biosynthesis; assay: Platelet malondialdehyde (MDA) production in vivo, male Wistar rats; conditions: Rattus norvegicus, read-out: MDA production in vivo ED50-values
Experimental: as §1, with “After isolation of the supernatant by centrifugation at 320 g for 20 min, the thiobarbituric acid reaction for MDA was performed using acid-hydrolyzed 1,1,3,3-tetramethoxypropane as a standard.” left out
For in vivo experiments male Wistar rats were fasted overnight. 2 Hours before blood sampling they were treated with the test compound solution/suspension or the solvent. […] ED50 -values were determined by probit analysis.

[3] = male Wistar rats fasted overnight, treated 2 hours before blood sampling, 50% inhibition relative to MDA values with solvent, probit analysis

Structure (SMILES)	IC50 [1] [nM]	ED50 [2, 3] [mg/kg]	IC50 ([1]; Homo sapiens, Platelet) [nM]	ED50 ([2]; 2 h) [mg/kg]
O=C(O)CCCCON=C(c1ccccc1)c1cccnc1 [Compound 4, (E+Z)-5-[[[phenyl(3-pyridinyl)methylen]amino]oxy]pentanoic acid]	100	0.059		
CCOC(=O)CCCCO/N=C(\c1ccccc1)c1cccnc1 [Compound 9]	< 100			
O=C(O)CCCCO/N=C(/c1cccnc1)c1cccc(C(F)(F)F)c1 [Compound 63, (E)-5-[[[(3-pyridinyl)[3-(trifluoromethyl)phenyl]methylen]amino]oxy]pentanoic acid]	22	0.012		
O=C(O)CCCCO/N=C(\c1ccccc1)c1cccnc1 [Compound 65]	66	0.045		
O=C(O)CCCCO/N=C(\Cc1ccccc1)c1cccnc1 [Compound 68]	75	1		
COc1ccc(C(=NOCCCCC(=O)O)c2cccnc2)cc1 [Compound 69]	100	0.17		
O=C(O)CCCCON=C(c1cccnc1)c1cccnc1 [Compound 70]	180	1.2		
Cc1ccc(C(=NOCCCCC(=O)O)c2cccnc2)cc1 [Compound 72]	120	0.041		
O=C(O)CCCCON=C(c1ccc(F)cc1)c1cccnc1 [Compound 73]	300	0.2		
O=C(O)CCCCO/N=C(/c1cccnc1)c1cccc2ccccc12 [Compound 93, (E)-5-[[[(1-naphthalenyl)(3-pyridinyl)methylen]amino]oxy]pentanoic acid]	10	0.014		
O=C([O-])CCCCO/N=C(/c1cccnc1)c1cccc(C(F)(F)F)c1.[Na+] [Compound 121, sodium (E)-5-[[[(3-pyridinyl)[3-(trifluoromethyl)phenyl]methylen]amino]oxy]pentanoate]			14	0.015
O=C([O-])CCCCO/N=C(\c1ccccc1)c1cccnc1.[Na+] [Compound 122, sodium (E)-5-[[[phenyl(3-pyridinyl)methylen]amino]oxy]pentanoate]			81	< 0.16
O=C(O)CCCCO/N=C(/c1cccnc1)c1cccc2ccccc12 [Compound 123, sodium (E)-5-[[[(1-naphthalenyl)(3-pyridinyl)methylen]amino]oxy]pentanoate]			18	

The next lines start with results.

IC50 [1] [nM]	Structure (SMILES)	ED50 [2, 3] [mg/kg]	IC50 ([1]; Homo sapiens, Platelet) [nM]	ED50 ([2]; 2 h) [mg/kg]
23	O=C(O)CCCCON=C(c1cccnc1)c1cccc2ccccc12 [Compound 74]	0.023		
120	O=C(O)CCCCO/N=C(/c1cccnc1)c1cccs1 [Compound 76]	0.068		
240	O=C(O)CCCCON=C(c1cccnc1)c1ccc2ccccc2c1 [Compound 78]	0.044		
110	COc1ccc(C(=NOCCCCC(=O)O)c2cccnc2)cc1OC [Compound 82]	0.056		
110	O=C(O)CCCCO/N=C(/c1cccnc1)c1ccsc1 [Compound 84]	0.17		
63	CCCC/C(=N\OCCCCC(=O)O)c1cccnc1 [Compound 86]	> 0.16		
24	COC(OC)c1ccccc1/C(=N\OCCCCC(=O)O)c1cccnc1 [Compound 87]	> 0.16		
43	Cc1cccc(C(=NOCCCCC(=O)O)c2cccnc2)c1 [Compound 89]	0.02		
24	Cc1cccc(/C(=N\OCCCCC(=O)O)c2cccnc2)c1 [Compound 90, (E)-5-[[[(3-methylphenyl)(3-pyridinyl)methylen]amino]oxy]pentanoic acid]	0.013		
33	O=C(O)CCCCO/N=C(/c1cccnc1)c1cc(C(F)(F)F)cc(C(F)(F)F)c1 [Compound 92]	0.01		
32	O=C(O)CCCCON=C(c1cccnc1)c1ccccc1C(F)(F)F [Compound 94]			
100	O=Cc1cccc(C(=NOCCCCC(=O)O)c2cccnc2)c1 [Compound 116, (E+Z)-5-[[[(3-formylphenyl)(3-pyridinyl)methylen]amino]oxy]pentanoic acid]			
